# Source: patent publication US20250270170A1, “2,3-DIMETHOXY-5-METHYL-1,4-BENZOQUINONE ALKYL ALCOHOL DERIVATIVE AND USE THEREOF” (BEIJING ANJIANXI BIO-MEDICAL TECHNOLOGY CO., LTD., priority 2021, published 2025)
# Values joined by “and” are separate entries in the source; they are usually repeats but may differ in a detail not shown here. Equal entries are not always repeated. “Also recorded” adds a separate entry of the source.
# What was measured:
# [1] = system: A549 cells; test: Flow cytometry for apoptosis detection (Annexin V-FITC/PI), A549; type: cell-based, human; details: 72 h
# Description: (1) Cells were inoculated in a 6-well plate. When the cell growth density was appropriate, four concentrations (0 μM, 10 μM, 30 μM, and 90 μM) of the compound of formula (I) were added, and placed in an incubator at 37° C. with 5% CO2 to continue culturing for 72 hours.
# (2) After reaching the designated time point, the cell culture plate was taken out from the incubator, and placed in a biological safety cabinet. A 4 ml centrifuge tube was taken and marked. The supernatant in the 6-well plate was pipetted out and added to the corresponding 4 ml centrifuge tube. The cells were gently washed with PBS, and the PBS was added to the corresponding centrifuge tube. An appropriate amount of trypsin was added to each well to digest the cells. When the cells were digested to a moderate degree, the liquid in the centrifuge tube was added to the corresponding well. The cells were gently pipetted with a pipette to disperse the cells, and was pipetted back into the original centrifuge tube. The tube was immediately centrifuged at 1500 rpm for 5 minutes. Then, the supernatant was discarded and the precipitate was retained.
# (3) 2 ml of PBS was added to the centrifuge tube, which was centrifuged again at 1000 rpm for 5 minutes. The supernatant was discarded. This step was repeated again.
# (4) The cells were suspended with 1× Binding buffer, and the cell concentration was adjusted to approximately 1×10^6 cells/ml. 100 μl of cell suspension was added to the flow cytometry tube, and 5 μl of PI and 5 μl of Annexin V-FITC were added to each tube. The cells were gently vortexed, and incubated at room temperature in dark for 15 min.
# (5) 400 μl of 1× Binding buffer was further added to each tube, and the detection was performed on the flow cytometer (the detection was in need to be completed within 1 hour).
# We used AnnexinV-FITC and PI double staining method for apoptosis staining. FL1 channel was selected for FITC, and FL2 channel was selected for PI. Flow cytometry analysis was used to detect cell apoptosis. Q1, Q2, Q3, and Q4 represented dead cells, late apoptotic cells, early apoptotic cells, and normal cells, respectively (FIG. 7). After treating A549 and NCI-H460 cells with the compound of formula (I) at different concentrations (0 μM, 10 μM, 30 μM, and 90 μM) for 72 h, the flow cytometry results are as follows. Table 1 and Table 2 show the proportions of dead cells, late apoptotic cells, early apoptotic cells, and normal cells after treating the A549 and NCI-H460 cells with different concentrations of the compound of formula (I), respectively.
# [2] = system: cisplatin-induced acute kidney damage in mice; test: Example 11: kidney weight and kidney coefficient in cisplatin-induced acute kidney damage model; type: in vivo, C57BL/6J mice; details: for Kidney coefficient (kidney weight/body weight), x (mean) / Kidney weight after the assay, x (mean): group mean
# Description: (§1) 42 male C57BL/6J mice (age: 6 to 8 weeks, body weight 18-20 g, certificate number: 11400700238365) were purchased from Si Pei Fu (Beijing) Biotechnology Co., Ltd., and raised in an SPF-grade animal room of the Institute of Materia Medica, Chinese Academy of Medical Sciences, at a temperature of 20 to 25° C., a relative humidity of 40% to 70%, and a cycle of 12 hours of light and 12 hours of dark. The animals had free access to water and food. After 3 days of normal feeding, mice with good physical conditions after the veterinary examination were selected for this assay. Before grouping, a marker was used to mark on the base of the animals' tail. After grouping, each animal was marked with an ear cutout (7 mice in each group).
# (§2) Assay animals: 42 7-week-old male C57 mice were used for animal testing after an adaptive feeding.
# (§3) Group 1: blank control group;
# (§4) The preparation of the R01 formulation administration test solution was the same as that in Example 5: an appropriate amount of the R01 formulation was weighed according to the three dosages set in the assay, respectively, and an appropriate volume of 0.5% CMC-Na aqueous solution was added. The mixture was vortexed and sonicated until mixed evenly, to give the administration test solutions with concentrations of […], respectively, which were ready for use.
# (§5) Animal testing period: 7 days (excluding adaptive feeding), hereinafter referred to as: D1-D7.
# 1. The first group was a solvent control group: N=7, all mice were males (the same below); • a) 0.5% solution of sodium carboxymethyl cellulose was gavagely administered from D1 to D6 (twice a day for each animal, with an interval of 8 hours between the morning and the afternoon). • b) Physiological saline was intraperitoneally injected in one-time on D4. • c) On D7, blood was collected from the orbit for euthanasia (300 ul of serum was extracted), the left kidney was fixed in formaldehyde, and the right kidney was preserved in liquid nitrogen (WB study may be carried out).
# 3) Each animal was weighed before euthanasia, and the weight was recorded. Two kidneys were weighed as soon as possible after euthanasia, and the weight was recorded. Then, the two kidneys were quickly fixed or cryopreserved, and the kidney coefficient of the mouse was calculated (kidney weight/mouse weight).
# (§6) The body weight of the animals when being grouped for administration in each group was recorded. The body weight and the kidney weight at the end of the assay were also recorded, and the kidney coefficient was calculated. The creatinine and urea nitrogen values in the blood samples sent for testing were recorded. The kidneys were stained with HE and PAS, and the slides were scanned. A report was issued after the pathological analysis.
# The assay data were calculated and processed statistically using Microsoft Office Excel 2007 software. Unless otherwise specified, the data were expressed as mean±standard error (Mean±SE), and t-test was used for comparison between two groups.
# [3] = system: cisplatin-induced acute kidney damage in mice; test: Example 11: renal pathology (HE, PAS) and pathological scoring; type: in vivo, C57BL/6J mice; details: bid, listed as R01
# Description: as §1, §2, §3, §4, §5
# 1. […]
# as §6, with “The kidneys were stained with HE and PAS, and the slides were scanned. A report was issued after the pathological analysis.” left out
# [4] = individual animals No. 1-7, cisplatin model, R01 6 mg/kg, listed as R01, 6 mg/kg
# [5] = individual animals No. 1-7, cisplatin model, R01 18 mg/kg, listed as R01, 18 mg/kg
# [6] = individual animals No. 1-7, cisplatin model, R01 36 mg/kg, listed as R01, 36 mg/kg
compound,measurement,setting,value
COC1=C(OC)C(=O)C(CCCCCCCCCCOC(=O)Cc2c(C)n(C(=O)c3ccc(Cl)cc3)c3ccc(OC)cc23)=C(C)C1=O [compound of formula (I)],Q1 Gated % (dead cells),[1]; 10 μM,1.07 ± 0.51%
same,Q2 Gated % (late apoptotic cells),[1]; 10 μM,2.57 ± 0.48%
same,Q3 Gated % (early apoptotic cells),[1]; 10 μM,1.86 ± 0.37%
same,Q4 Gated % (normal cells),[1]; 10 μM,94.5 ± 0.57%
same,percentage of apoptosis (total apoptosis),[1]; 10 μM,4.43 ± 0.11
same,Q1 Gated % (dead cells),[1]; 30 μM,1.34 ± 0.19%
same,Q2 Gated % (late apoptotic cells),[1]; 30 μM,3.08 ± 0.16%
same,Q3 Gated % (early apoptotic cells),[1]; 30 μM,2.58 ± 1.38%
same,Q4 Gated % (normal cells),[1]; 30 μM,93.05 ± 1.34%
same,percentage of apoptosis (total apoptosis),[1]; 30 μM,5.65 ± 1.54
same,Q1 Gated % (dead cells),[1]; 90 μM,0.31 ± 0.14%
same,Q2 Gated % (late apoptotic cells),[1]; 90 μM,20.9 ± 3.39%
same,Q3 Gated % (early apoptotic cells),[1]; 90 μM,50.4 ± 1.41%
same,Q4 Gated % (normal cells),[1]; 90 μM,28.4 ± 4.67%
same,percentage of apoptosis (total apoptosis),[1]; 90 μM,71.3 ± 4.81
same,"Kidney coefficient (kidney weight/body weight), x (mean)","[2]; cisplatin model, R01 6 mg/kg",0.014
same,"Kidney weight after the assay, x (mean)","[2]; cisplatin model, R01 6 mg/kg",0.223 g
same,"Kidney coefficient (kidney weight/body weight), x (mean)","[2]; cisplatin model, R01 18 mg/kg",0.013
same,"Kidney weight after the assay, x (mean)","[2]; cisplatin model, R01 18 mg/kg",0.211 g
same,"Kidney coefficient (kidney weight/body weight), x (mean)","[2]; cisplatin model, R01 36 mg/kg",0.013
same,"Kidney weight after the assay, x (mean)","[2]; cisplatin model, R01 36 mg/kg",0.207 g
same,Kidney coefficient (kidney weight/body weight),[2]; [4],0.013 (3×) and 0.015 and 0.014 (2×) and 0.018
same,Kidney weight after the assay,[2]; [4],0.207 g and 0.212 g and 0.209 g and 0.224 g and 0.228 g and 0.214 g and 0.270 g
same,Kidney coefficient (kidney weight/body weight),[2]; [5],0.014 (3×) and 0.013 (4×)
same,Kidney weight after the assay,[2]; [5],0.214 g and 0.211 g (2×) and 0.206 g and 0.215 g and 0.210 g and 0.213 g
same,Kidney coefficient (kidney weight/body weight),[2]; [6],0.012 and 0.014 (4×) and 0.013 (2×)
same,Kidney weight after the assay,[2]; [6],0.192 g and 0.216 g and 0.203 g and 0.228 g and 0.213 g and 0.189 g and 0.206 g
same,Kidney coefficient (kidney weight/body weight),"[2]; with cisplatin 10 mg/kg, amifostine 50 mg/kg i.p., R01 6, 18, 36 mg/kg bid",equivalent to that of the blank control group
same,pathological damage of kidneys,[3]; cisplatin 10 mg/kg + R01 6 mg,"severe renal tubular damage, epithelial cell necrosis and slight protein casts and 2 animals suffered serious kidney damage, and the others were mildly damaged and significantly reduced"
same,pathological damage of kidneys,[3]; cisplatin 10 mg/kg + R01 36 mg,"Only one mouse in this group showed slight pathological damage to the kidney; also recorded: basically complete kidney tissue morphology, slight damage"
